Assay results as given in BindingDB's records for doi:10.1016/j.bmcl.2008.12.079 (Gilead Sciences, 2009).

Target: T1, Gag-Pol polyprotein [1148-1435] (Human immunodeficiency virus 1, UniProt P04585)
T1 construct: 1148-1435
Experiment: DNA Strand-Transfer Activity Assay
Settings: pH 7.3; 22 °C
Procedure: In the strand-transfer assay, the biotinylated donor DNA was bound to streptavidin-coated plates, and integrase was added to each well to allow processing of the donor DNA. Serially diluted compounds and DIG-tagged target DNA were then added to each well, and 3-end joining reaction was allowed to proceed for 30 min. Signal was detected using horseradishperoxidase-conjugated anti-Digoxin antibody through chemiluminescence measurement.

`COc1c2c(c(O)c3ncc(Cc4ccc(F)cc4)cc13)C(=O)N(C)C2` [3-[(4-fluorophenyl)methyl]-9-hydroxy-5-methoxy-7-methyl-6H,7H,8H-pyrrolo[3,4-g]quinolin-8-one] was tested, and the IC50 was 100 nM.
